Test results: ChEMBL document CHEMBL1201861, “Genomics of Drug Sensitity in Cancer screening data, Wellcome Trust Sanger Institute”

Each molecule was assayed on ES3 (assay: cells). Settings: Homo sapiens, ES3.
Assay type: functional, cell-based, Homo sapiens
Description: SANGER: Inhibition of human ES3 cell growth in a cell viability assay.

Row | SMILES | IC50 [µM]
1 | C=CC(=O)N1CCCC(Nc2nc(Nc3ccc(N(C)C(=O)CC)cc3)nc3[nH]cnc23)C1 (stereo not given) | > 10.2

These molecules were tested on KNS-81-FD (assay: cells). Settings: Homo sapiens, KNS-81-FD.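 Also: growth inhibition of KNS-81-FD cells, read out with a cell viability assay.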
Assay type: functional, cell-based, Homo sapiens
Description: SANGER: Inhibition of human KNS-81-FD cell growth in a cell viability assay.

Row | SMILES | IC50 [µM]
2 | C=CC(=O)N1CCCC(Nc2nc(Nc3ccc(N(C)C(=O)CC)cc3)nc3[nH]cnc23)C1 (stereo not given) | > 10.2

The molecules below were run on MLMA (assay: cells). Settings: Homo sapiens, MLMA.
Assay type: functional, cell-based, Homo sapiens
Description: SANGER: Inhibition of human MLMA cell growth in a cell viability assay.

Row | SMILES | IC50 [µM]
3 | C=CC(=O)N1CCCC(Nc2nc(Nc3ccc(N(C)C(=O)CC)cc3)nc3[nH]cnc23)C1 (stereo not given) | > 10.2

Each molecule was assayed on CGTH-W-1 (assay: cells). Settings: Homo sapiens, CGTH-W-1.
Assay type: functional, cell-based, Homo sapiens
Description: SANGER: Inhibition of human CGTH-W-1 cell growth in a cell viability assay.

Row | SMILES | IC50 [µM]
4 | C=CC(=O)N1CCCC(Nc2nc(Nc3ccc(N(C)C(=O)CC)cc3)nc3[nH]cnc23)C1 (stereo not given) | > 10.2

What follows are molecules tested on PSN1 (assay: cells). Settings: Homo sapiens, PSN1.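 Also: suppression of growth of human PSN1 cells, read out by a cell viability assay.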
Assay type: functional, cell-based, Homo sapiens
Description: SANGER: Inhibition of human PSN1 cell growth in a cell viability assay.

Row | SMILES | IC50 [µM]
5 | C=CC(=O)N1CCCC(Nc2nc(Nc3ccc(N(C)C(=O)CC)cc3)nc3[nH]cnc23)C1 (stereo not given) | > 10.2

The molecules below were run on U-266 (assay: cells). Settings: Homo sapiens, U-266.
Assay type: functional, cell-based, Homo sapiens
Description: SANGER: Inhibition of human U-266 cell growth in a cell viability assay.

Row | SMILES | IC50 [µM]
6 | C=CC(=O)N1CCCC(Nc2nc(Nc3ccc(N(C)C(=O)CC)cc3)nc3[nH]cnc23)C1 (stereo not given) | > 10.2

What follows are molecules tested on LC-2-ad (assay: cells). Settings: Homo sapiens, LC-2-ad.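 Also: growth inhibition of human LC-2-ad cells, read out with a cell viability assay.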
Assay type: functional, cell-based, Homo sapiens
Description: SANGER: Inhibition of human LC-2-ad cell growth in a cell viability assay.

Row | SMILES | IC50 [µM]
7 | C=CC(=O)N1CCCC(Nc2nc(Nc3ccc(N(C)C(=O)CC)cc3)nc3[nH]cnc23)C1 (stereo not given) | 7.27

Each molecule was assayed on JVM-3 (assay: cells). Settings: Homo sapiens, JVM-3.
Assay type: functional, cell-based, Homo sapiens
Description: SANGER: Inhibition of human JVM-3 cell growth in a cell viability assay.

Row | SMILES | IC50 [µM]
8 | C=CC(=O)N1CCCC(Nc2nc(Nc3ccc(N(C)C(=O)CC)cc3)nc3[nH]cnc23)C1 (stereo not given) | > 10.2

The molecules below were run on LS-411N (assay: cells). Settings: Homo sapiens, LS-411N.
Assay type: functional, cell-based, Homo sapiens

Row | SMILES | IC50 [µM]
9 | C=CC(=O)N1CCCC(Nc2nc(Nc3ccc(N(C)C(=O)CC)cc3)nc3[nH]cnc23)C1 (stereo not given) | > 10.2

What follows are molecules tested on SK-MEL-2 (assay: cells). Settings: Homo sapiens, SK-MEL-2.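 Also: growth inhibition of human SK-MEL-2 cells measured with a cell viability assay.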
Assay type: functional, cell-based, Homo sapiens
Description: SANGER: Inhibition of human SK-MEL-2 cell growth in a cell viability assay.

Row | SMILES | IC50 [µM]
10 | C=CC(=O)N1CCCC(Nc2nc(Nc3ccc(N(C)C(=O)CC)cc3)nc3[nH]cnc23)C1 (stereo not given) | > 10.2

What follows are molecules tested on HT (assay: cells). Settings: Homo sapiens, HT.
Assay type: functional, cell-based, Homo sapiens
Description: SANGER: Inhibition of human HT cell growth in a cell viability assay.

Row | SMILES | IC50 [µM]
11 | C=CC(=O)N1CCCC(Nc2nc(Nc3ccc(N(C)C(=O)CC)cc3)nc3[nH]cnc23)C1 (stereo not given) | > 10.2

The molecules below were run on KARPAS-299 (assay: cells). Settings: Homo sapiens, KARPAS-299.
Assay type: functional, cell-based, Homo sapiens
Description: SANGER: Inhibition of human KARPAS-299 cell growth in a cell viability assay.

Row | SMILES | IC50 [µM]
12 | C=CC(=O)N1CCCC(Nc2nc(Nc3ccc(N(C)C(=O)CC)cc3)nc3[nH]cnc23)C1 (stereo not given) | > 10.2

These molecules were tested on EW-1 (assay: cells). Settings: Homo sapiens, EW-1.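 Also: growth inhibition of the human EW-1 cell line, read out by a cell viability assay.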
Assay type: functional, cell-based, Homo sapiens
Description: SANGER: Inhibition of human EW-1 cell growth in a cell viability assay.

Row | SMILES | IC50 [µM]
13 | C=CC(=O)N1CCCC(Nc2nc(Nc3ccc(N(C)C(=O)CC)cc3)nc3[nH]cnc23)C1 (stereo not given) | > 10.2

Each molecule was assayed on MN-60 (assay: cells). Settings: Homo sapiens, MN-60.
Assay type: functional, cell-based, Homo sapiens
Description: SANGER: Inhibition of human MN-60 cell growth in a cell viability assay.

Row | SMILES | IC50 [µM]
14 | C=CC(=O)N1CCCC(Nc2nc(Nc3ccc(N(C)C(=O)CC)cc3)nc3[nH]cnc23)C1 (stereo not given) | > 10.2

These molecules were tested on D-247MG (assay: cells). Settings: Homo sapiens.
Assay type: functional, cell-based
Description: SANGER: Inhibition of human D-247MG cell growth in a cell viability assay.

Row | SMILES | IC50 [µM]
15 | C=CC(=O)N1CCCC(Nc2nc(Nc3ccc(N(C)C(=O)CC)cc3)nc3[nH]cnc23)C1 (stereo not given) | > 10.2

The molecules below were run on RKO (assay: cells). Settings: Homo sapiens, RKO.
Assay type: functional, cell-based, Homo sapiens
Description: SANGER: Inhibition of human RKO cell growth in a cell viability assay.

Row | SMILES | IC50 [µM]
16 | C=CC(=O)N1CCCC(Nc2nc(Nc3ccc(N(C)C(=O)CC)cc3)nc3[nH]cnc23)C1 (stereo not given) | > 10.2

Each molecule was assayed on J-RT3-T3-5 (assay: cells). Settings: Homo sapiens, J-RT3-T3-5.
Assay type: functional, cell-based, Homo sapiens
Description: SANGER: Inhibition of human J-RT3-T3-5 cell growth in a cell viability assay.

Row | SMILES | IC50 [µM]
17 | C=CC(=O)N1CCCC(Nc2nc(Nc3ccc(N(C)C(=O)CC)cc3)nc3[nH]cnc23)C1 (stereo not given) | > 10.2

Each molecule was assayed on NCI-H1092 (assay: cells). Settings: Homo sapiens, NCI-H1092.
Assay type: functional, cell-based, Homo sapiens
Description: SANGER: Inhibition of human NCI-H1092 cell growth in a cell viability assay.

Row | SMILES | IC50 [µM]
18 | C=CC(=O)N1CCCC(Nc2nc(Nc3ccc(N(C)C(=O)CC)cc3)nc3[nH]cnc23)C1 (stereo not given) | > 10.2

These molecules were tested on TGBC1TKB (assay: cells). Settings: Homo sapiens, TGBC1TKB.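 Also: growth inhibition of TGBC1TKB cells, read out by a cell viability assay.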
Assay type: functional, cell-based, Homo sapiens
Description: SANGER: Inhibition of human TGBC1TKB cell growth in a cell viability assay.

Row | SMILES | IC50 [µM]
19 | C=CC(=O)N1CCCC(Nc2nc(Nc3ccc(N(C)C(=O)CC)cc3)nc3[nH]cnc23)C1 (stereo not given) | > 10.2

What follows are molecules tested on DSH1 (assay: cells). Settings: Homo sapiens.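 Also: growth inhibition of human DSH1 cells, measured with a cell viability readout.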
Assay type: functional, cell-based
Description: SANGER: Inhibition of human DSH1 cell growth in a cell viability assay.

Row | SMILES | IC50 [µM]
20 | C=CC(=O)N1CCCC(Nc2nc(Nc3ccc(N(C)C(=O)CC)cc3)nc3[nH]cnc23)C1 (stereo not given) | > 10.2

What follows are molecules tested on RS4-11 (assay: cells). Settings: Homo sapiens, RS4-11.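 Also: growth inhibition of RS4-11 cells, read out by a cell viability assay.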
Assay type: functional, cell-based, Homo sapiens
Description: SANGER: Inhibition of human RS4-11 cell growth in a cell viability assay.

Row | SMILES | IC50 [µM]
21 | C=CC(=O)N1CCCC(Nc2nc(Nc3ccc(N(C)C(=O)CC)cc3)nc3[nH]cnc23)C1 (stereo not given) | > 10.2

The molecules below were run on NCI-H1581 (assay: cells). Settings: Homo sapiens, NCI-H1581.
Assay type: functional, cell-based, Homo sapiens
Description: SANGER: Inhibition of human NCI-H1581 cell growth in a cell viability assay.

Row | SMILES | IC50 [µM]
22 | C=CC(=O)N1CCCC(Nc2nc(Nc3ccc(N(C)C(=O)CC)cc3)nc3[nH]cnc23)C1 (stereo not given) | > 10.2

What follows are molecules tested on KU812 cell line (assay: cells). Settings: Homo sapiens, KU812.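 Also: growth inhibition of KU812 cells, read out with a cell viability assay.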
Assay type: functional, cell-based, Homo sapiens
Description: SANGER: Inhibition of human KU812 cell growth in a cell viability assay.

Row | SMILES | IC50 [µM]
23 | C=CC(=O)N1CCCC(Nc2nc(Nc3ccc(N(C)C(=O)CC)cc3)nc3[nH]cnc23)C1 (stereo not given) | > 10.2

These molecules were tested on TE-11 (assay: cells). Settings: Homo sapiens.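 Also: growth inhibition of human TE-11 cells, read out by a cell viability assay.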
Assay type: functional, cell-based
Description: SANGER: Inhibition of human TE-11 cell growth in a cell viability assay.

Row | SMILES | IC50 [µM]
24 | C=CC(=O)N1CCCC(Nc2nc(Nc3ccc(N(C)C(=O)CC)cc3)nc3[nH]cnc23)C1 (stereo not given) | > 10.2

Each molecule was assayed on D-263MG (assay: cells). Settings: Homo sapiens, D-263MG.
Assay type: functional, cell-based, Homo sapiens
Description: SANGER: Inhibition of human D-263MG cell growth in a cell viability assay.

Row | SMILES | IC50 [µM]
25 | C=CC(=O)N1CCCC(Nc2nc(Nc3ccc(N(C)C(=O)CC)cc3)nc3[nH]cnc23)C1 (stereo not given) | > 10.2
